Laboratory results: patent US9023789B2, “Amylin analogs and pharmaceutical compositions thereof” (Novo Nordisk A/S, priority 2012, dated 2015)
Read-outs that look alike come from different tables or passages of the source. Numbered stars: 1 amine (or outer) side, 2 acyl side, 3 side chain; on linkers, the order of the positions; unused ones are H or OH. Bridge positions count the residues as written; N and C are the ends. Side chains are listed from the residue outwards. Peptide text beside a SMILES is read from it. * marks the point of attachment. C20 diacid = O=C(O)CCCCCCCCCCCCCCCCCCC(=O)*; γGlu = O=C(O)[C@H](CCC(=O)[*:2])N[*:1]

Key:
[1] = target: T1, human amylin 3(a) receptor (human calcitonin receptor + RAMP-3) in BHK570 cells (Homo sapiens, UniProt O60896+P30988); test: ASSAY (II)a functional assay, human amylin receptor (CRE luciferase); format: cell-based
T1 construct: expressed in transfected cells
Method in brief: (§1)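 BHK cells stably carrying a CRE-luciferase reporter plus calcitonin receptor, or calcitonin receptor with RAMP-3 for the amylin 3(a) receptor, were seeded and kept overnight at 37° C. Compounds were added in assay medium with 10% FBS and 10 mM Hepes, pH 7.4, for 3 hours at 37° C, then luminescence was counted.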

[2] = target: T2, human calcitonin (a) receptor in BHK570 cells (Homo sapiens, UniProt P30988); test: ASSAY (II)a functional assay, human calcitonin receptor (CRE luciferase); format: cell-based
T2 construct: expressed in transfected cells
T2 sequence (P30988 25-474): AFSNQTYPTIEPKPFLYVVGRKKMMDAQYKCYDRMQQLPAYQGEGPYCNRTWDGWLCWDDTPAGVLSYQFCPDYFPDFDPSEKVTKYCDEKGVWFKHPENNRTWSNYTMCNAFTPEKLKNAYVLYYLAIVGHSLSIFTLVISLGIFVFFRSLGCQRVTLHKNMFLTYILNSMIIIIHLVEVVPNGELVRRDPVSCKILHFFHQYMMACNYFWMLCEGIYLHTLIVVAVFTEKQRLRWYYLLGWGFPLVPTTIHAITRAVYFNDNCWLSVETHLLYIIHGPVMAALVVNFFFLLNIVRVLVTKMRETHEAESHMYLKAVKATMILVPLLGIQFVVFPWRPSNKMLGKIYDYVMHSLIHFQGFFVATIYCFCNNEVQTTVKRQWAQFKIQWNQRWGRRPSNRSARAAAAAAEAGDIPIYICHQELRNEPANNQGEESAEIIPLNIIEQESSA
Method in brief: as §1

[3] = target: T3, human amylin receptor (membranes from Amylin 3(a)/CRE-luc cells) (Homo sapiens, UniProt O60896+P30988); test: ASSAY (V) binding to the human amylin receptor (SPA, 125I-rat amylin);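 note: competition binding of cell membranes (35 ng/µL) mixed with SPA beads in 384-well plates at 40 µL total volume, read by scintillation counting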
T3 construct: expressed in transfected cells
T3 sequence (P30988 25-474): T2 sequence (P30988 25-474)
T3 sequence (O60896 24-148 partner): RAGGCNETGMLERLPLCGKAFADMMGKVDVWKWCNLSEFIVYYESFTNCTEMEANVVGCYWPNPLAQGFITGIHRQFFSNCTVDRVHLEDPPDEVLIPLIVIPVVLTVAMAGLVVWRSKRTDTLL

[4] = target: T4, human calcitonin receptor (Homo sapiens, UniProt P30988); test: ASSAY (VII) binding to the human calcitonin receptor (SPA, 125I-Calcitonin);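 note: cell membranes (35 ng/µL) combined with SPA beads in 40 µL of pH 7.4 Hepes buffer, 384-well format, signal counted on a TopCounter instrument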
T4 construct: expressed in transfected cells
T4 sequence (P30988 25-474): T2 sequence (P30988 25-474)
Method: Membranes were prepared in the following way; the cells were rinsed with PBS and incubated with Versene for approximately 5 min before harvesting. The cells were flushed with PBS and the cell-suspension was centrifuged for 5 min at 1000 rpm. […] The resulting pellet was resuspended in buffer 2 and protein concentration was measured (BCA protein Assay, Pierce). The homogenate was kept cold during the whole procedure. The membranes were kept at −80° C. until use. Assay was performed in a 384 well Optiplate (PerkinElmer) in a total volume of 40 ul. Membranes were mixed with SPA beads. Final concentration of membranes 35 ng/μL final and Final concentration of SPA beads was 0.05 mg/well. Test-compounds were dissolved in DMSO and further diluted in assay buffer (50 mM Hepes, pH 7.4, 1 mM CaCl2, 5 mM MgCl2, 0.1% OA and 0.02% Tween20). […] Samples were analyzed on TopCounter™ (Packard).

[5] = hCTR funct. EC50 / hAmylin-R funct. EC50
[6] = hCTR funct. EC50 divided by hAmylin-R funct. EC50
[7] = hCTR funct. EC50 over hAmylin-R funct. EC50
[8] = human amylin receptor functional potency, assay (II), read-out: hAmylin-R funct. EC50
[9] = human functional selectivity: hCTR funct. EC50 / hAmylin-R funct. EC50
[10] = Table 4, read-out: hAmylin-R bind IC50
[11] = Table 5, selectivity, hCTR bind IC50 / hAmylin-R bind IC50
[12] = Table 5a, selectivity, hCTR bind IC50 / hAmylin-R bind IC50
[13] = Table 5b, selectivity, hCTR bind IC50 / hAmylin-R bind IC50
[14] = Table 5c, selectivity, hCTR bind IC50 / hAmylin-R bind IC50
[15] = Table 7, human binding selectivity, included for comparison
[16] = Table 7a (preferred compounds), human binding selectivity, included for comparison
[17] = ratio of human calcitonin receptor binding IC50 to human amylin receptor binding IC50

| SMILES | Ratio hCT/hAmylin funct. [1, 5] | Ratio hCT/hAmylin funct. [1, 6] | Ratio hCT/hAmylin funct. [1, 7] | EC50 [1, 8] [nM] | Ratio hCT/hAmylin funct. [1, 9] | EC50 ([2]; read-out: hCTR funct. EC50) [nM] | IC50 [3, 10] [nM] | Ratio hCT/hAmylin binding [3, 11] | Ratio hCT/hAmylin binding [3, 12] | Ratio hCT/hAmylin binding [3, 13] | Ratio hCT/hAmylin binding [3, 14] | Ratio hCT/hAmylin binding [3, 15] | Ratio hCT/hAmylin binding [3, 16] | Ratio hCT/hAmylin binding [3, 17] | IC50 ([4]; read-out: hCTR bind IC50) [nM] | EC50 [1] [nM] | EC50 [2] [nM] | IC50 [3] [nM] | IC50 [4] [nM] |
| --- | --- | --- | --- | --- | --- | --- | --- | --- | --- | --- | --- | --- | --- | --- | --- | --- | --- | --- | --- |
| CC[C@H](C)[C@H](NC(=O)[C@H](C)NC(=O)CNC(=O)[C@H](Cc1ccccc1)NC(=O)[C@H](CC(N)=O)NC(=O)[C@@H]1CCCN1C(=O)[C@H](CO)NC(=O)[C@H](CO)NC(=O)[C@H](Cc1c[nH]cn1)NC(=O)[C@H](CCCNC(=N)N)NC(=O)[C@H](CC(C)C)NC(=O)[C@H](Cc1ccccc1)NC(=O)[C@H](C)NC(=O)[C@H](C)NC(=O)[C@H](CC(C)C)NC(=O)[C@H](CCCNC(=N)N)NC(=O)[C@H](CCC(N)=O)NC(=O)[C@@H](NC(=O)[C@H](C)NC(=O)[C@@H]1CSSC[C@H](NC(=O)[C@H](CCCNC(=N)N)NC(=O)CNC(=O)CC[C@H](NC(=O)CCCCCCCCCCCCCCCCCCC(=O)O)C(=O)O)C(=O)N[C@@H](CC(N)=O)C(=O)N[C@@H]([C@@H](C)O)C(=O)N[C@@H](C)C(=O)N[C@@H]([C@@H](C)O)C(=O)N1)[C@@H](C)O)C(=O)N1CCC[C@H]1C(=O)N[C@@H](CO)C(=O)N[C@@H](CO)C(=O)N[C@H](C(=O)N[C@@H](CC(N)=O)C(=O)N[C@H](C(=O)NCC(=O)N[C@@H](Cc1c[nH]cn1)C(=O)N[C@@H](CC(N)=O)C(=O)N[C@H](C(=O)N[C@@H](Cc1ccc(O)cc1)C(N)=O)[C@@H](C)O)C(C)C)[C@@H](C)O [Example 101] ({C20 diacid-γGlu}-GRCNTATCATQRLAAFLRHSSPNFGAIPSSTNVGHNTY-NH2; disulfide 3-8) | 4.9 | 4.9 | 4.9 | 0.109 | 4.9 | 0.537 | 0.426 | 68.6 | 68.6 | 68.6 | 68.6 | 68.6 | 68.6 | 68.6 | 29.2 | – | – | – | – |
| CC[C@H](C)[C@H](NC(=O)[C@H](C)NC(=O)CNC(=O)[C@H](Cc1ccccc1)NC(=O)[C@H](CC(N)=O)NC(=O)[C@@H]1CCCN1C(=O)[C@H](CO)NC(=O)[C@H](CO)NC(=O)[C@H](Cc1c[nH]cn1)NC(=O)[C@H](CCCNC(=N)N)NC(=O)[C@H](CC(C)C)NC(=O)[C@H](Cc1ccccc1)NC(=O)[C@H](C)NC(=O)[C@H](C)NC(=O)[C@H](CC(C)C)NC(=O)[C@H](CCCNC(=N)N)NC(=O)[C@H](CCC(N)=O)NC(=O)[C@@H](NC(=O)[C@H](C)NC(=O)[C@@H]1CSSC[C@H](NC(=O)[C@H](CCCNC(=N)N)NC(=O)CNC(=O)CC[C@H](NC(=O)CCCCCCCCCCCCCCCCCCC(=O)O)C(=O)O)C(=O)N[C@@H](CC(N)=O)C(=O)N[C@@H]([C@@H](C)O)C(=O)N[C@@H](C)C(=O)N[C@@H]([C@@H](C)O)C(=O)N1)[C@@H](C)O)C(=O)N1CCC[C@H]1C(=O)N[C@@H](CO)C(=O)N[C@@H](CO)C(=O)N[C@H](C(=O)N[C@@H](CC(N)=O)C(=O)N[C@H](C(=O)NCC(=O)N1CCC[C@H]1C(=O)N[C@@H](CC(N)=O)C(=O)N[C@H](C(=O)N[C@@H](Cc1ccc(O)cc1)C(N)=O)[C@@H](C)O)C(C)C)[C@@H](C)O [Example 103] ({C20 diacid-γGlu}-GRCNTATCATQRLAAFLRHSSPNFGAIPSSTNVGPNTY-NH2; disulfide 3-8) | 2.1 | 2.1 | 2.1 | – | 2.1 | – | – | 26.5 | 26.5 | 26.5 | 26.5 | 26.5 | 26.5 | 26.5 | – | 0.07 | 0.148 | 0.114 | 3 |
| CC[C@H](C)[C@H](NC(=O)[C@H](C)NC(=O)CNC(=O)[C@H](Cc1ccccc1)NC(=O)[C@H](CC(N)=O)NC(=O)[C@@H]1CCCN1C(=O)[C@H](CO)NC(=O)[C@H](CO)NC(=O)[C@H](Cc1c[nH]cn1)NC(=O)[C@H](CCCNC(=N)N)NC(=O)[C@H](CC(C)C)NC(=O)[C@H](Cc1ccccc1)NC(=O)[C@H](CCC(=O)O)NC(=O)[C@H](C)NC(=O)[C@H](CC(C)C)NC(=O)[C@H](CCCNC(=N)N)NC(=O)[C@H](CCC(N)=O)NC(=O)[C@@H](NC(=O)[C@H](C)NC(=O)[C@@H]1CSSC[C@H](NC(=O)[C@@H](N)CCCCNC(=O)CC[C@H](NC(=O)CC[C@H](NC(=O)CCCCCCCCCCCCCCCCCCC(=O)O)C(=O)O)C(=O)O)C(=O)N[C@@H](CC(N)=O)C(=O)N[C@@H]([C@@H](C)O)C(=O)N[C@@H](C)C(=O)N[C@@H]([C@@H](C)O)C(=O)N1)[C@@H](C)O)C(=O)N1CCC[C@H]1C(=O)N[C@@H](CO)C(=O)N[C@@H](CO)C(=O)N[C@H](C(=O)N[C@@H](CC(N)=O)C(=O)N[C@H](C(=O)NCC(=O)N[C@@H](CCCNC(=N)N)C(=O)N[C@@H](CCC(=O)O)C(=O)N[C@H](C(=O)N[C@@H](Cc1ccc(O)cc1)C(N)=O)[C@@H](C)O)C(C)C)[C@@H](C)O [Example 105] (H-K([γGlu-γGlu-C20 diacid])CNTATCATQRLAEFLRHSSPNFGAIPSSTNVGRETY-NH2; disulfide 2-7; N-terminus assumed) | – | 10.6 | 10.6 | 0.703 | 10.6 | 7.43 | 0.957 | 14.7 | 14.7 | – | – | 14.7 | 14.7 | 14.7 | 14.1 | – | – | – | – |
| CC[C@H](C)[C@H](NC(=O)[C@H](C)NC(=O)CNC(=O)[C@H](Cc1ccccc1)NC(=O)[C@H](CC(N)=O)NC(=O)[C@@H]1CCCN1C(=O)[C@H](CO)NC(=O)[C@H](CO)NC(=O)[C@H](Cc1c[nH]cn1)NC(=O)[C@H](CCCNC(=N)N)NC(=O)[C@H](CC(C)C)NC(=O)[C@H](Cc1ccccc1)NC(=O)[C@H](CCC(=O)O)NC(=O)[C@H](C)NC(=O)[C@H](CC(C)C)NC(=O)[C@H](CCCNC(=N)N)NC(=O)[C@H](CCC(N)=O)NC(=O)[C@@H](NC(=O)[C@H](C)NC(=O)[C@@H]1CSSC[C@H](NC(=O)[C@@H](N)CCCCNC(=O)CC[C@H](NC(=O)CCCCCCCCCCCCCCCCCCC(=O)O)C(=O)O)C(=O)N[C@@H](CC(N)=O)C(=O)N[C@@H]([C@@H](C)O)C(=O)N[C@@H](C)C(=O)N[C@@H]([C@@H](C)O)C(=O)N1)[C@@H](C)O)C(=O)N1CCC[C@H]1C(=O)N[C@@H](CO)C(=O)N[C@@H](CO)C(=O)N[C@H](C(=O)N[C@@H](CC(N)=O)C(=O)N[C@H](C(=O)NCC(=O)N[C@@H](Cc1c[nH]cn1)C(=O)N[C@@H](CCC(=O)O)C(=O)N[C@H](C(=O)N[C@@H](Cc1ccc(O)cc1)C(N)=O)[C@@H](C)O)C(C)C)[C@@H](C)O [Example 107] (H-K([γGlu-C20 diacid])CNTATCATQRLAEFLRHSSPNFGAIPSSTNVGHETY-NH2; disulfide 2-7 (inferred)) | – | 6.3 | 6.3 | 0.405 | 6.3 | 2.54 | 0.387 | 11.1 | 11.1 | – | – | 11.1 | 11.1 | 11.1 | 4.28 | – | – | – | – |
